This note sets out measurements from patent publication US7098227B2, “Disubstituted thiazolyl carboxanilides and their use as microbicides” (Bayer Cropscience AG, priority 2002, dated 2006).

One data set has as its system Rhizoctonia solani. The data set is described as follows: In vitro Test for the ED50 Determination in Microorganisms. The data set is classed as cell-based. As to conditions: 50% inhibition of fungal growth, tested at 0.1, 1, 10 and 100 ppm, 22° C., 3–5 days, photometric 620 nm. On the procedure:
(§1) In vitro Test for the ED50 Determination in Microorganisms A methanolic solution of the active compound to be tested, mixed with the emulsifier PS16, is pipetted into the wells of microtitre plates. After the solvent has evaporated, 200 μl of potato/dextrose medium are added to each well. Beforehand, a suitable concentration of spores or mycelium of the fungus to be tested was added to the medium. The resulting concentrations of the active compound are 0.1, 1, 10 and 100 ppm. The resulting concentration of the emulsifier is 300 ppm. The plates are then incubated on a shaker at a temperature of 22° C. for 3–5 days, until sufficient growth can be observed in the untreated control. Evaluation is carried out photometrically at a wavelength of 620 nm. The dose of active compound which causes a 50% inhibition of fungal growths compared to the untreated control (ED50), is calculated from the data measured at different concentrations.

The test system of a further data set is Septoria tritici. The description is as above. The data set is classed as cell-based. The note with it: 50% inhibition of fungal growth, tested at 0.1, 1, 10 and 100 ppm, 22° C., 3–5 days, photometric 620 nm. On the procedure: as §1
Data set [1] is described as follows: logP determination by HPLC on reverse-phase column (C 18), EEC Directive 79/831 Annex V.A8. The data set is classed as physicochemical. As to conditions: 43° C.; for chromatographic logP: reverse-phase HPLC column (C 18), pH 2.3, pH 2.3, 0.1% aqueous phosphoric acid/acetonitrile gradient. On the procedure:
The logP values given in the tables and Preparation Examples above are determined in accordance with EEC Directive 79/831 Annex V.A8 by HPLC (High Performance Liquid Chromatography) on a reverse-phase column (C 18). Temperature: 43° C. The determination is carried out in the acidic range at pH 2.3 using the mobile phases 0.1% aqueous phosphoric acid and acetonitrile; linear gradient from 10% acetonitrile to 90% acetonitrile. Calibration is carried out using unbranched alkan-2-ones (of 3 to 16 carbon atoms), with known logP values (determination of the logP values by the retention times using linear interpolation between two successive […]).

The test system of another data set is Sphaerotheca fuliginea. The data set is described as follows: Sphaerotheca Test (Cucumber)/Protective. The data set is classed as in vivo. The note with it: Podosphaera fuliginea, 168 h, application rate 10 g/ha, protective spray, evaluation 7 days after inoculation, 100% = no infection, read-out: % Efficacy. On the procedure: Sphaerotheca Test (Cucumber)/Protective [table] To produce a suitable preparation of active compound, 1 part by weight of active compound is mixed with the stated amounts of solvent and emulsifier, and the concentrate is diluted with water to the desired concentration. To test for protective effectivity, the young plants are sprayed with the preparation of active compound at the stated application rate. After the spray coating has dried on, the plants are inoculated with an aqueous spore suspension of Sphaerotheca fuliginea. The plants are then placed in a greenhouse at about 23° C. and a relative atmospheric humidity of about 70%. Evaluation is carried out 7 days after the inoculation. 0% means an efficacy which corresponds to that of the control, whereas an efficacy of 100% means that no infection is observed.

For another data set, the system named is Botrytis cinerea. The data set is described as follows: Botrytis Test (Bean)/Protective. The data set is classed as in vivo. The note with it: 48 h, application rate 100 g/ha, protective spray, evaluation 2 days after inoculation, 100% = no infection, read-out: % Efficacy. On the procedure:
Botrytis Test (Bean)/Protective [table] To produce a suitable preparation of active compound, 1 part by weight of active compound is mixed with the stated amounts of solvent and emulsifier, and the concentrate is diluted with water to the desired concentration. To test for protective activity, young plants are sprayed with the preparation of active compound at the stated application rate. After the spray coating has dried on, 2 small pieces of agar colonised by Botrytis cinerea are placed onto each leaf. The inoculated plants are then placed in a dark chamber at about 20° C. and 100% relative atmospheric humidity. 2 days after the inoculation, the size of the infected areas on the leaves is evaluated. 0% means an efficacy which corresponds to that of the control, whereas an efficacy of 100% means that no infection is observed.

Another data set concerns Venturia inaequalis. The data set is described as follows: Venturia Test (Apple)/Protective. The data set is classed as in vivo. As to conditions: 240 h, application rate 10 g/ha, protective spray, evaluation 10 days after inoculation, 100% = no infection, read-out: % Efficacy. On the procedure:
Venturia Test (Apple)/Protective [table] To produce a suitable preparation of active compound, 1 part by weight of active compound is mixed with the stated amounts of solvent and the emulsifier, and the concentrate is diluted with water to the desired concentration. To test for protective activity, young plants are sprayed with the preparation of active compound at the stated application rate. After the spray coating has dried on, the plants are inoculated with an aqueous conidia suspension of the apple scab pathogen Venturia inaequalis and then remain in an incubation cabin at about 20° C. and 100% relative atmospheric humidity for 1 day. The plants are then placed in a greenhouse at about 21° C. and a relative atmospheric humidity of about 90%. Evaluation is carried out 10 days after the inoculation. 0% means an efficacy which corresponds to that of the control, whereas an efficacy of 100% means that no infection is observed.

As for `Cc1nc(C(F)(F)F)c(C(=O)Nc2ccccc2-c2ccc(Cl)cc2C)s1` [Example 16], the ED50 amounted to 0.45 ppm in the data set with Rhizoctonia solani and 0.89 ppm in the data set on Septoria tritici. Further, in data set [1], the chromatographic logP (usually a lipophilicity value derived from retention on a column) is 4.23.

For `Cc1nc(C(F)(F)F)c(C(=O)Nc2ccccc2-c2ccc(Cl)cc2Cl)s1` [Example 17], the chromatographic logP in data set [1] turned out to be 3.86. Moreover, the pest or weed control at 10 g/ha in the data set with Sphaerotheca fuliginea came to 90%. Besides, the pest or weed control at 100 g/ha in the data set on Botrytis cinerea turned out to be 87%.

Consider `Cc1nc(C(F)(F)F)c(C(=O)Nc2ccccc2-c2cc(F)cc(F)c2)s1` [Example 5], for which the melting point (usually the temperature of the solid-liquid transition) was in the range of 133 to 134 °C. The same compound gave a chromatographic logP in data set [1] of 3.35. In the data set on Venturia inaequalis, the pest or weed control at 10 g/ha worked out at 94%.

For the compound `Cc1nc(C(F)(F)F)c(C(=O)Nc2ccccc2-c2ccc(Cl)c(C(F)(F)F)c2)s1` [Example 11], the ED50 in the data set on Rhizoctonia solani is given as below 0.1 ppm; in the data set with Septoria tritici, 1.42 ppm. The chromatographic logP in data set [1] turned out to be 4.03. The pest or weed control at 10 g/ha with Sphaerotheca fuliginea and in the data set with Venturia inaequalis was 100% in each case.

For the compound `Cc1nc(C(F)(F)F)c(C(=O)Nc2ccccc2-c2ccc(C)c(C(F)(F)F)c2)s1` [Example 12], the ED50 in the data set on Rhizoctonia solani was below 0.1 ppm; in the data set with Septoria tritici it was 3.16 ppm. In data set [1], this compound yielded a chromatographic logP of 4.03. Also, the pest or weed control at 10 g/ha in the data set on Sphaerotheca fuliginea worked out at 100%.

In data set [1], `Cc1nc(C(F)(F)F)c(C(=O)Nc2ccccc2-c2ccc(OC(F)(F)F)c(C(F)(F)F)c2)s1` [Example 13] registered a chromatographic logP of 4.08. Further, the pest or weed control at 10 g/ha with Sphaerotheca fuliginea amounted to 85%.

For the compound `Cc1nc(C(F)(F)F)c(C(=O)Nc2ccccc2-c2ccc(Cl)cc2)s1` [reference compound], the ED50 with Rhizoctonia solani and in the data set with Septoria tritici was >100>100 ppm in each case. Further, the pest or weed control at 10 g/ha with Sphaerotheca fuliginea was 30%; with Venturia inaequalis, 76%. Further, the pest or weed control at 100 g/ha in the data set with Botrytis cinerea is 76%.

With `Cc1nc(C(F)(F)F)c(C(=O)Nc2ccccc2-c2ccc(F)cc2F)s1` [Example 6], the chromatographic logP in data set [1] came to 3.21. In addition, the pest or weed control at 10 g/ha in the data set with Venturia inaequalis came to 99%.

Take `Cc1nc(C(F)(F)F)c(C(=O)Nc2ccccc2-c2ccc(F)c(C)c2)s1` [Example 10]: the ED50 in the data set with Rhizoctonia solani and with Septoria tritici was <0.1 <0.1 ppm in each case. Further, the results for the pest or weed control at 10 g/ha in the data set on Sphaerotheca fuliginea and in the data set on Venturia inaequalis were 98% and 100%, respectively. The pest or weed control at 100 g/ha in the data set with Botrytis cinerea was determined as 95%.

In data set [1], `Cc1nc(C(F)(F)F)c(C(=O)Nc2ccccc2Br)s1` [Example (IV-2), N-(2-bromophenyl)-2-methyl-4-(trifluoromethyl)-1,3-thiazol-5-carboxamide] displayed a chromatographic logP of 2.79.

In the case of `Cc1nc(C(F)(F)F)c(C(=O)Nc2ccccc2-c2ccc(Cl)c(F)c2)s1` [Example 7], the melting point was 139 to 141 °C. Besides, the chromatographic logP in data set [1] is 3.61. Further, the pest or weed control at 10 g/ha with Sphaerotheca fuliginea amounted to 95%. Further, in the data set on Venturia inaequalis, the pest or weed control at 10 g/ha amounted to 100%. The pest or weed control at 100 g/ha in the data set on Botrytis cinerea is 92%.

Consider `Cc1nc(C(F)(F)F)c(C(=O)Nc2ccccc2-c2ccc(F)c(C(F)(F)F)c2)s1` [Example 9], for which the chromatographic logP in data set [1] stood at 3.76. In the data set with Sphaerotheca fuliginea, the pest or weed control at 10 g/ha came out at 90%.

For the compound `Cc1nc(C(F)(F)F)c(C(=O)Nc2ccccc2-c2ccc(F)c(Cl)c2)s1` [Example 1, N-(3′-chloro-4′-fluoro-1,1′-biphenyl-2-yl)-2-methyl-4-(trifluoromethyl)-1,3-thiazol-5-carboxamide], the logP (in general, a log measure of how a compound divides between an organic and an aqueous phase) in data set [1] (pH 2.3, 0.1% aqueous phosphoric acid/acetonitrile gradient, listed as 2) was found to be 3.60. In data set [1], this compound registered a chromatographic logP of 3.58. For the same compound, the pest or weed control at 10 g/ha came out at 83% with Sphaerotheca fuliginea and 100% with Venturia inaequalis. Moreover, in the data set with Botrytis cinerea, the pest or weed control at 100 g/ha was 82%.

Regarding `Nc1ccccc1-c1ccc(F)c(Cl)c1` [Example (III-1), 3′-chloro-4′-fluoro-1,1′-biphenyl-2-amine], the chromatographic logP in data set [1] was 3.01.

Turning to `Cc1nc(C(F)(F)F)c(C(=O)Nc2ccccc2-c2ccc(F)c(F)c2)s1` [Example 4], the melting point was 120 to 122 °C. Moreover, the chromatographic logP in data set [1] was 3.31. For the same compound, the pest or weed control at 10 g/ha in the data set with Sphaerotheca fuliginea was 90%. Besides, the pest or weed control at 10 g/ha in the data set on Venturia inaequalis was found to be 100%.

For the compound `Cc1nc(C(F)(F)F)c(C(=O)Nc2ccccc2-c2ccc(F)cc2)s1` [Example 3.37, reference compound], the ED50 with Rhizoctonia solani is on record as above 100 ppm; in the data set on Septoria tritici, 84.24 ppm. The pest or weed control at 10 g/ha came out at 20% with Sphaerotheca fuliginea and 32% in the data set on Venturia inaequalis. The pest or weed control at 100 g/ha in the data set with Botrytis cinerea came out at 50%.

As to `Cc1nc(C(F)(F)F)c(C(=O)Nc2ccccc2-c2cc(Cl)cc(Cl)c2)s1` [Example 14], the ED50 in the data set with Rhizoctonia solani is below 0.1 ppm; in the data set with Septoria tritici, 0.32 ppm. Also, the chromatographic logP in data set [1] was 3.63. In addition, the pest or weed control at 10 g/ha in the data set on Venturia inaequalis was 100%.

With `Cc1nc(C(F)(F)F)c(C(=O)Nc2ccccc2I)s1` [Example (IV-1), N-(2-iodophenyl)-2-methyl-4-(trifluoromethyl)-1,3-thiazol-5-carboxamide], in data set [1], the chromatographic logP came to 2.81.

On to `Cc1nc(C(F)(F)F)c(C(=O)Nc2ccccc2-c2ccc(Cl)cc2F)s1` [Example 19], for which, in data set [1], the chromatographic logP was 3.52. Further, the pest or weed control at 10 g/ha is 81% in the data set with Sphaerotheca fuliginea and 100% with Venturia inaequalis. For the same compound, the pest or weed control at 100 g/ha with Botrytis cinerea worked out at 99%.

Regarding `Cc1nc(C(F)(F)F)c(C(=O)Nc2ccccc2-c2ccc(C)c(Cl)c2)s1` [Example 18], the pest or weed control at 10 g/ha in the data set with Venturia inaequalis stood at 100%. Moreover, the pest or weed control at 100 g/ha in the data set with Botrytis cinerea came out at 99%.
